We go through 1 compound from patent publication US7601724B2, “Substituted pyrazolo[1,5-a]pyrimidines as protein kinase inhibitors” (Schering Corporation, priority 2002, dated 2009).

One may read the IC50 as the point on the concentration scale where inhibition reaches its midpoint. A low value points to greater potency in that assay.

The experiment deals with T1, Cyclin E/CDK2 (Homo sapiens, UniProt P24941).
T1 construct: made in house; host or cells: SF9 insect cells, baculovirus co-infection
As to the kind of experiment: In vitro cyclin E/CDK2 kinase assay (33P-ATP, SPA beads), IC50 determination. The experiment is classed as biochemical.

`Cn1cc(-c2cnn3c(Nc4ccc(-n5ccnc5)cc4)cc(C4CCCNC4)nc23)cn1` (stereo not shown) [Example 90-C] gave an IC50 of 200 nM.
